According to PMC9954146, “Anti-Leukaemic Activity of Rilpivirine Is Mediated by Aurora A Kinase Inhibition” (Cancers, 2023):

Assays:
Experiment in all cases: Kinase panel
Assay type in all cases: biochemical
Settings in all cases: read-out: % Residual Activity
[1] = target: T1, Abl(h) (Homo sapiens, UniProt P00519)
T1 construct: purchased Eurofins (KinaseProfiler)
Description: (§1) Kinome-wide selectivity of rilpivirine was measured using the kinase screening and profiling service of Eurofins Scientific (Le bois l’Evêque 86600. Celle-Lévescault, France) and Ki values were determined using radioisotope-based assays by Reaction Biology Corporation (Malvern, PA, USA). The experimental details of Eurofin Scientific and Reaction Biology services for relevant assays are available at https://www.eurofinsdiscoveryservices.com/services/in-Vitro-assays/kinases/kinase-profiler (accessed on 7 July 2021) and https://www.reactionbiology.com (accessed on 7 July 2021), respectively. Ki values were estimated from the corresponding IC50 values using the Cheng–Prusoff equation [21] and the Km (ATP) of individual kinase was used for IC50 determination.

[2] = target: T2, Axl(h) (Homo sapiens, UniProt P30530)
T2 construct: purchased Eurofins (KinaseProfiler)
Description: as §1

[3] = target: T3, Blk(m) (Mus musculus, UniProt P16277)
T3 construct: purchased Eurofins (KinaseProfiler)
Description: as §1

[4] = target: T4, CHK2(h) (Homo sapiens, UniProt O96017)
T4 construct: purchased Eurofins (KinaseProfiler)
Description: as §1

[5] = target: T5, CRIK(h) (Homo sapiens, UniProt O14578)
T5 construct: purchased Eurofins (KinaseProfiler)
Description: as §1

[6] = target: T6, CaMKIIδ(h) (Homo sapiens, UniProt Q13557)
T6 construct: purchased Eurofins (KinaseProfiler)
Description: as §1

[7] = target: T7, EGFR(T790M,L858R)(h) (Homo sapiens, UniProt P00533, L858R/T790M)
T7 construct: purchased Eurofins (KinaseProfiler)
Description: as §1

[8] = target: T8, EphA1(h) (Homo sapiens, UniProt P21709)
T8 construct: purchased Eurofins (KinaseProfiler)
Description: as §1

[9] = target: T9, EphA3(h) (Homo sapiens, UniProt P29320)
T9 construct: purchased Eurofins (KinaseProfiler)
Description: as §1

[10] = target: T10, GCK(h) (Homo sapiens, UniProt Q12851)
T10 construct: purchased Eurofins (KinaseProfiler)
Description: as §1

[11] = target: T11, IRE1(h) (Homo sapiens, UniProt O75460)
T11 construct: purchased Eurofins (KinaseProfiler)
Description: as §1

[12] = target: T12, IRR(h) (Homo sapiens, UniProt P14616)
T12 construct: purchased Eurofins (KinaseProfiler)
Description: as §1

[13] = target: T13, Itk(h) (Homo sapiens, UniProt Q08881)
T13 construct: purchased Eurofins (KinaseProfiler)
Description: as §1

[14] = target: T14, LATS1(h) (Homo sapiens, UniProt O95835)
T14 construct: purchased Eurofins (KinaseProfiler)
Description: as §1

[15] = target: T15, LIMK1(h) (Homo sapiens, UniProt P53667)
T15 construct: purchased Eurofins (KinaseProfiler)
Description: as §1

[16] = target: T16, LIMK2(h) (Homo sapiens, UniProt P53671)
T16 construct: purchased Eurofins (KinaseProfiler)
Description: as §1

[17] = target: T17, MEKK2(h) (Homo sapiens, UniProt Q9Y2U5)
T17 construct: purchased Eurofins (KinaseProfiler)
Description: as §1

[18] = target: T18, MLCK(h) (Homo sapiens, UniProt Q15746)
T18 construct: purchased Eurofins (KinaseProfiler)
Description: as §1

[19] = target: T19, MLK2(h) (Homo sapiens, UniProt Q02779)
T19 construct: purchased Eurofins (KinaseProfiler)
Description: as §1

[20] = target: T20, MRCKγ(h) (Homo sapiens, UniProt Q6DT37)
T20 construct: purchased Eurofins (KinaseProfiler)
Description: as §1

[21] = target: T21, NEK11(h) (Homo sapiens, UniProt Q8NG66)
T21 construct: purchased Eurofins (KinaseProfiler)
Description: as §1

[22] = target: T22, NEK3(h) (Homo sapiens, UniProt P51956)
T22 construct: purchased Eurofins (KinaseProfiler)
Description: as §1

[23] = target: T23, PAR-1Bα(h) (Homo sapiens, UniProt Q7KZI7)
T23 construct: purchased Eurofins (KinaseProfiler)
Description: as §1

[24] = target: T24, PDGFRα(D842V)(h) (Homo sapiens, UniProt P16234, D842V)
T24 construct: purchased Eurofins (KinaseProfiler)
Description: as §1

[25] = target: T25, PEK(h) (Homo sapiens, UniProt Q9NZJ5)
T25 construct: purchased Eurofins (KinaseProfiler)
Description: as §1

[26] = target: PIP4K2a(h) (Homo sapiens, UniProt P48426)
Description: as §1

[27] = target: T26, PKCι(h) (Homo sapiens, UniProt P41743)
T26 construct: purchased Eurofins (KinaseProfiler)
Description: as §1

[28] = target: T27, PrKX(h) (Homo sapiens, UniProt P51817)
T27 construct: purchased Eurofins (KinaseProfiler)
Description: as §1

[29] = target: T28, RIPK1(h) (Homo sapiens, UniProt Q13546)
T28 construct: purchased Eurofins (KinaseProfiler)
Description: as §1

[30] = target: T29, RIPK2(h) (Homo sapiens, UniProt O43353)
T29 construct: purchased Eurofins (KinaseProfiler)
Description: as §1

[31] = target: T30, Ret(h) (Homo sapiens, UniProt P07949)
T30 construct: purchased Eurofins (KinaseProfiler)
Description: as §1

[32] = target: T31, SAPK2a(T106M)(h) (Homo sapiens, UniProt Q16539, T106M)
T31 construct: purchased Eurofins (KinaseProfiler)
Description: as §1

[33] = target: T32, STK32C(h) (Homo sapiens, UniProt Q86UX6)
T32 construct: purchased Eurofins (KinaseProfiler)
Description: as §1

[34] = target: T33, TrkC(h) (Homo sapiens, UniProt Q16288)
T33 construct: purchased Eurofins (KinaseProfiler)
Description: as §1

[35] = target: T34, Wee1(h) (Homo sapiens, UniProt P30291)
T34 construct: purchased Eurofins (KinaseProfiler)
Description: as §1

[36] = target: T35, Wee1B(h) (Homo sapiens, UniProt P0C1S8)
T35 construct: purchased Eurofins (KinaseProfiler)
Description: as §1

[37] = target: T36, ZAP-70(h) (Homo sapiens, UniProt P43403)
T36 construct: purchased Eurofins (KinaseProfiler)
Description: as §1

[38] = target: T37, cKit(h) (Homo sapiens, UniProt P10721)
T37 construct: purchased Eurofins (KinaseProfiler)
Description: as §1

[39] = target: T38, mTOR(h) (Homo sapiens, UniProt P42345)
T38 construct: purchased Eurofins (KinaseProfiler)
Description: as §1

T35 sequence (P0C1S8 whole entry): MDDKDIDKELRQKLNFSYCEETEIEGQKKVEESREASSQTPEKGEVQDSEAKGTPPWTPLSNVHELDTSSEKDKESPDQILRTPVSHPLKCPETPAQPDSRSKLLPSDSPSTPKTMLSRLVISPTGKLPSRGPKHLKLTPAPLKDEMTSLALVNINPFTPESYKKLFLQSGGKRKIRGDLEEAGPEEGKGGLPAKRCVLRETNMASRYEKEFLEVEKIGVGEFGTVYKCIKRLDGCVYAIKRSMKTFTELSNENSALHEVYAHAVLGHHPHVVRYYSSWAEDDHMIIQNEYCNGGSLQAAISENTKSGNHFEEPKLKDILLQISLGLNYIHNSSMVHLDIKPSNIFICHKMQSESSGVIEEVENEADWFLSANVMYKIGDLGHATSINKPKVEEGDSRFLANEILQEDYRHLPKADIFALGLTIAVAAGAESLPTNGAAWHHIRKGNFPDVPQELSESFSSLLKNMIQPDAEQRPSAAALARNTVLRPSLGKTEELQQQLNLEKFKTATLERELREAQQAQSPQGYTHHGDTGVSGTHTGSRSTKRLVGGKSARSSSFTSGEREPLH
PIP4K2a(h), sequence (P48426 whole entry): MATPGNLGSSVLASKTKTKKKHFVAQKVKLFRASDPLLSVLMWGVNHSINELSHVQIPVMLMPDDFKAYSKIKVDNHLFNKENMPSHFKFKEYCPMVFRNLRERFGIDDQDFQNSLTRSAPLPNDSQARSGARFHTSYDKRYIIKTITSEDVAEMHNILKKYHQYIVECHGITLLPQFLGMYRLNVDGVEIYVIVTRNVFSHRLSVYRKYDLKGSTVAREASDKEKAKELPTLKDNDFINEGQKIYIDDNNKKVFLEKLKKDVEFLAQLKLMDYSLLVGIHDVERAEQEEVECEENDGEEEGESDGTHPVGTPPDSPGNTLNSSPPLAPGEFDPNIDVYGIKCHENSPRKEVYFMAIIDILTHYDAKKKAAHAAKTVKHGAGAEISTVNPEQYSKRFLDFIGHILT
T12 sequence (P14616 27-1297): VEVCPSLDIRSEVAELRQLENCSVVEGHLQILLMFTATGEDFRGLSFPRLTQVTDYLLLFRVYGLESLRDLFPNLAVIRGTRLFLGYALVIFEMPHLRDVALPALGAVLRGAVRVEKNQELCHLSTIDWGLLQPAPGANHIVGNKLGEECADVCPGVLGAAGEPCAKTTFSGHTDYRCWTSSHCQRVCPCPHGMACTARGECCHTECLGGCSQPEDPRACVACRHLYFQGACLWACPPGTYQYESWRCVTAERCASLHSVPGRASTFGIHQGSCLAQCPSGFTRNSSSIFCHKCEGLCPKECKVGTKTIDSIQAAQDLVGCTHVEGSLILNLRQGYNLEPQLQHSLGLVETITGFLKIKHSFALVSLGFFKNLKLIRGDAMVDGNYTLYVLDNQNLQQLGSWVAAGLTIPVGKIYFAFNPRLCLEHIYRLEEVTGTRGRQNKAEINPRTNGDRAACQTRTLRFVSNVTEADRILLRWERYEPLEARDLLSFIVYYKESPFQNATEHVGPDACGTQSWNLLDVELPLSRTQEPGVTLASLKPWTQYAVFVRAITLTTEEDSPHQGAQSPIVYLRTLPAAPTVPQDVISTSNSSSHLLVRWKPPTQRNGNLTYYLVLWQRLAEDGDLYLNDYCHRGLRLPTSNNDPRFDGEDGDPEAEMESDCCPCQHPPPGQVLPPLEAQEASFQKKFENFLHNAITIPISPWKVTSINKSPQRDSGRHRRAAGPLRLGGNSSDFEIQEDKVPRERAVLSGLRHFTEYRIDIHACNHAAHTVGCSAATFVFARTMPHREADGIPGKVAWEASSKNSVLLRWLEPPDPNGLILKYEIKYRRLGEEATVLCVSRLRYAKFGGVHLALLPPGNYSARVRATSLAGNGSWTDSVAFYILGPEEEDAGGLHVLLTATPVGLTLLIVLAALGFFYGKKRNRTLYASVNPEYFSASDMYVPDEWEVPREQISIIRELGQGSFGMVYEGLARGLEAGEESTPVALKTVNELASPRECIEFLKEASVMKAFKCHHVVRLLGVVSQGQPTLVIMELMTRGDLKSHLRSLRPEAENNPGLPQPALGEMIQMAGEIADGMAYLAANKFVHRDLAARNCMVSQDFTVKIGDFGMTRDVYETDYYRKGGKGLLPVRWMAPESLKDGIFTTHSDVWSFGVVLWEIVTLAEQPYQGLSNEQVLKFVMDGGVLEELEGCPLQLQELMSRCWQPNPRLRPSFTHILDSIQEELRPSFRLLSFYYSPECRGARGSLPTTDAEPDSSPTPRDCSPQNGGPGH
T17 sequence (Q9Y2U5 whole entry): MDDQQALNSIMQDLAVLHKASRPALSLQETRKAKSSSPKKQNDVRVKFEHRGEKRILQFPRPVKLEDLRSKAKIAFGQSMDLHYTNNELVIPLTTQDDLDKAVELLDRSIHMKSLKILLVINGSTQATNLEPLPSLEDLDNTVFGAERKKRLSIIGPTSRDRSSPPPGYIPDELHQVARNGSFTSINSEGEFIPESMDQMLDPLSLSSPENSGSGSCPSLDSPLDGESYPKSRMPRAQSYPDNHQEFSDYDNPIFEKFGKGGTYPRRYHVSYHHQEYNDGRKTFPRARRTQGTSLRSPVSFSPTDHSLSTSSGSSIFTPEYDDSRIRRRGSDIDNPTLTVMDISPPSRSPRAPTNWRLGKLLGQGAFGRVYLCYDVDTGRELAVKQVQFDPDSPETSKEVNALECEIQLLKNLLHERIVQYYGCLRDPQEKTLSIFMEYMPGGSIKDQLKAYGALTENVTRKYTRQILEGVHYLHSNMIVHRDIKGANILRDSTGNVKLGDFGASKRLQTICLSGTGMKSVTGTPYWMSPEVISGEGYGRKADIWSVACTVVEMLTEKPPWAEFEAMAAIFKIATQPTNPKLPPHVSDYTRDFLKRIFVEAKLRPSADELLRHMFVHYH
T6 sequence (Q13557 whole entry): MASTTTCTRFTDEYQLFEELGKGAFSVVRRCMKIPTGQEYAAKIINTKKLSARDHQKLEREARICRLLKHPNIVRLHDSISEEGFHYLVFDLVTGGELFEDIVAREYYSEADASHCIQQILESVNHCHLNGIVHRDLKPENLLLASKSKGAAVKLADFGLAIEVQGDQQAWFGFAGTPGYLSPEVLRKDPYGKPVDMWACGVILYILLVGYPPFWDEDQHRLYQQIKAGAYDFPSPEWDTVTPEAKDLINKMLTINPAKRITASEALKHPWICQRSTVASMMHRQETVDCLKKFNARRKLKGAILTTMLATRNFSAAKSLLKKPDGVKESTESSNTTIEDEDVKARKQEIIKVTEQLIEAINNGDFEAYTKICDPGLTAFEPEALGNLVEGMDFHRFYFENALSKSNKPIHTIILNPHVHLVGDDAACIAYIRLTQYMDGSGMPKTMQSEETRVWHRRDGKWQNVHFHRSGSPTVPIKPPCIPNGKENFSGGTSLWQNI
T22 sequence (P51956 whole entry): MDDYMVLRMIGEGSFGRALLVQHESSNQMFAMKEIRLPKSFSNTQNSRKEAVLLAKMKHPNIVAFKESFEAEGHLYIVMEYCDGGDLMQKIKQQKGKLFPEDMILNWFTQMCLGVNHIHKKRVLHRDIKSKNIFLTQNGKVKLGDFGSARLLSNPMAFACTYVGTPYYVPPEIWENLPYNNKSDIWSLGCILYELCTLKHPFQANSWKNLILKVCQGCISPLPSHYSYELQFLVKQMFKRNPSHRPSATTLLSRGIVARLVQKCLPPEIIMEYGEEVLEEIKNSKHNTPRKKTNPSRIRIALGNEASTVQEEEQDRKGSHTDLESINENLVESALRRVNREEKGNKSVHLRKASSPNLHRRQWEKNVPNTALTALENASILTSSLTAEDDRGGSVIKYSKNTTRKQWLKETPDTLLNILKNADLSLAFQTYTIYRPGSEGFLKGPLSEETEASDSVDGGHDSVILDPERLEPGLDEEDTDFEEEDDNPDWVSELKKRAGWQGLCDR
T4 sequence (O96017 whole entry): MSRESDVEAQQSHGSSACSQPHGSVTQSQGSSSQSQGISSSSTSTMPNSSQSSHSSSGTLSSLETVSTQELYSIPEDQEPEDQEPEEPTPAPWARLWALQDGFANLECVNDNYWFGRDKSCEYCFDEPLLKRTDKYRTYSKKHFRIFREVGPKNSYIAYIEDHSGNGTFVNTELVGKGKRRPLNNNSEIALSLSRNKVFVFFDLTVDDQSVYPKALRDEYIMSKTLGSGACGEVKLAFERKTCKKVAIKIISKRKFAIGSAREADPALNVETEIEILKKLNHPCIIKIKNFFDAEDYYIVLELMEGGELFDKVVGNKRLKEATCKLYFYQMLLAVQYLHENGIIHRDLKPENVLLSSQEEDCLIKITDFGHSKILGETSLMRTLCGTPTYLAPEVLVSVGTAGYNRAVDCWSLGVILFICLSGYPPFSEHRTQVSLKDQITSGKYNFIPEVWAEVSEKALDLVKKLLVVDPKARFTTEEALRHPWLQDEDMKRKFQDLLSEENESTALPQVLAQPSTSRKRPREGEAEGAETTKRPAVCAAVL
T36 sequence (P43403 whole entry): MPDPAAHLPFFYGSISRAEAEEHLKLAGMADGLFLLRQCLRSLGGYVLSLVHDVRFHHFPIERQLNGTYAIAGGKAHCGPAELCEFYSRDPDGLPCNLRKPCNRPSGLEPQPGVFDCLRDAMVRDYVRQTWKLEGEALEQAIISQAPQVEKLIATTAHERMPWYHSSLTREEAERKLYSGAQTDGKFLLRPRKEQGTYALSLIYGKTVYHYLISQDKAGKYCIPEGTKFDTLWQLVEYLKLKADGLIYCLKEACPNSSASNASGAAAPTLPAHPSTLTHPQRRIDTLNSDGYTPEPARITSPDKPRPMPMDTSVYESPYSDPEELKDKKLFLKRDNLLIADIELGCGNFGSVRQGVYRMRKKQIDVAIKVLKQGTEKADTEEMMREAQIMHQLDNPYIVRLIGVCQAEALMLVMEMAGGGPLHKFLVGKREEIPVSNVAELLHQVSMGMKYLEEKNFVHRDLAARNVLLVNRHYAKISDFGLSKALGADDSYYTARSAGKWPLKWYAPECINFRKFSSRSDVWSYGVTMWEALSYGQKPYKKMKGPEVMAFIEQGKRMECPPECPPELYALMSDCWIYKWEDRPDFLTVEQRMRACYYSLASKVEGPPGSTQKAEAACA

`Cc1cc(/C=C/C#N)cc(C)c1Nc1ccnc(Nc2ccc(C#N)cc2)n1` [rilpivirine, (E)-4-((4-((4-(2-cyanoethenyl)-2,6-dimethylphenyl)amino)pyrimidin-2-yl)amino)benzonitrile] was tested, and the remaining activity at 1 µM [1] was 86%, the remaining activity at 1 µM [2] was 98% and the remaining activity at 1 µM [3] was 75%. It also gave a remaining activity at 1 µM [4] of 93%, a remaining activity at 1 µM [5] of 107% and a remaining activity at 1 µM [6] of 47%. For the same compound, the remaining activity at 1 µM [7] was 88%, the remaining activity at 1 µM [8] was 56% and the remaining activity at 1 µM [9] was 86%. The remaining activity at 1 µM [10] was 99%, the remaining activity at 1 µM [11] was 100% and the remaining activity at 1 µM [12] was 95%. It also gave a remaining activity at 1 µM [13] of 91%, a remaining activity at 1 µM [14] of 86% and a remaining activity at 1 µM [15] of 47%. For the same compound, the remaining activity at 1 µM [16] was 71%, the remaining activity at 1 µM [17] was 104% and the remaining activity at 1 µM [18] was 95%. The remaining activity at 1 µM [19] was 85%, the remaining activity at 1 µM [20] was 90% and the remaining activity at 1 µM [21] was 92%. For the same compound, the remaining activity at 1 µM [22] was 91%, the remaining activity at 1 µM [23] was 104% and the remaining activity at 1 µM [24] was 79%. It also gave a remaining activity at 1 µM [25] of 82%, a remaining activity at 1 µM [26] of 103% and a remaining activity at 1 µM [27] of 99%. It also gave a remaining activity at 1 µM [28] of 97%, a remaining activity at 1 µM [29] of 91% and a remaining activity at 1 µM [30] of 45%. For the same compound, the remaining activity at 1 µM [31] was 108%, the remaining activity at 1 µM [32] was 90% and the remaining activity at 1 µM [33] was 94%. For the same compound, the remaining activity at 1 µM [34] was 91%, the remaining activity at 1 µM [35] was 90% and the remaining activity at 1 µM [36] was 94%. The remaining activity at 1 µM [37] was 97%, the remaining activity at 1 µM [38] was 99% and the remaining activity at 1 µM [39] was 97%.
